Laboratory results from patent US12533349B2, “Drug formulations for reservoir-based delivery” (Medtronic, Inc., priority 2020, dated 2026).

Key:
Assay type in all cases: physicochemical
[1] = Hansen Solubility Parameters (HSP) determination; conditions: Hansen Solubility Parameter
Source text: (§1) Without intending to be bound by theory, it is believed that HSP provides a thermodynamic indication of whether a compound will migrate into a component of the reservoir-based delivery device, such as a polymeric component of the reservoir-based delivery device. Greater differences between HSPs of the compound and the component tend to result in lower amounts of migration.
For purposes of the present disclosure, differential HSP values of less than 7 are considered to be of high risk, HSP values between 7 and 10 are considered to be of medium risk, and HSP values of greater than 10 are considered to be of low risk for the drug to migrate into the component of the reservoir-based delivery device. Differential HSP values may be determined as described in Kitak, et al. (2015), “Determination of Solubility Parameters of Ibuprofen and Ibuprofen Lysinate,” Molecules, 20:21549-21568. One useful measurement of differential HSP values is described in Equation (4) of Kitak, et al. on page 21550. Other useful measurements include Equations (5), (6), and (7) of Kitak, et al. on pages 21550-21551.
The HSP of bupivacaine and the drug contacting material (silicone) were determined.

[2] = Differential HSP between drug and drug-contacting material of SynchroMed II infusion device; conditions: bupivacaine vs drug-contacting material (silicone); less than 7 is considered high risk of migration
Source text: as §1
For purposes of the present disclosure, differential HSP values of less than 7 are considered to be of high risk, HSP values between 7 and 10 are considered to be of medium risk, and HSP values of greater than 10 are considered to be of low risk for the drug to migrate into the component of the reservoir-based delivery device. Differential HSP values may be determined as described in Kitak, et al. (2015), “Determination of Solubility Parameters of Ibuprofen and Ibuprofen Lysinate,” Molecules, 20:21549-21568. […]
In the following, non-limiting example development of a bupivacaine formulation for use in a reservoir-based delivery device is shown. The drug delivery device for which compatibility was determined was Medtronic, Inc.'s SynchroMed® II implantable infusion device. […]
The differential HSP value was determined to be 4.2, which is considered to be high risk of the drug migrating into the drug-contacting material.

[3] = Potential for chemical reaction between functional groups of drug and drug-contacting material; conditions: drug-contacting material silicone
Source text: The presence of certain functional groups on the drug or components of the formulation and certain functional groups on drug formulation contacting materials of the reservoir-based delivery devices may result in concern for chemical reaction between one or more ingredients of the formulation and the drug formulation contacting materials.
For example, silyl ether groups which may be present on silicone drug formulation contacting materials may react with amine groups, phosphate groups, or carboxylate groups of ingredients of the drug formulation.
In the following, non-limiting example development of a bupivacaine formulation for use in a reservoir-based delivery device is shown. The drug delivery device for which compatibility was determined was Medtronic, Inc.'s SynchroMed® II implantable infusion device. The material of the component of the SynchroMed® II for which compatibility was tested was silicone. Bupivacaine may migrate into silicone without consideration of formulation.
In addition, it was determined that bupivacaine has a high risk of potential for chemical reaction between functional groups in bupivacaine and the functional groups in the drug-contacting material.

HSP δD ([1]; δD component): 18.1
HSP δH ([1]; δH component): 6.03
HSP δP ([1]; δP component): 6.46
differential HSP value [2]: 4.2
risk of potential for chemical reaction between functional groups in bupivacaine and in the drug-contacting material [3]: high risk
Structure (SMILES): CCCCN1CCCCC1C(=O)Nc1c(C)cccc1C (centres unmarked) [bupivacaine]
